Measurements as given in patent US20190166840A1, “SUBSTITUTED PYRAZOLINYL DERIVATIVES, PROCESSES FOR THEIR PREPARATION AND THEIR USE AS HERBICIDES AND/OR PLANT GROWTH REGULATORS” (BAYER CROPSCIENCE AKTIENGESELLSCHAFT, priority 2016, published 2019).

Key:
Format in all cases: in vivo
Conditions in all cases: application rate 1280 g/ha, scored visually after about 3 weeks
Amaranthus retroflexus = experiment: Pre-emergence herbicidal action, AMARE
Source text: (§1) Pre-Emergence Herbicidal Action Seeds of mono- and dicotyledonous weed plants or crop plants were placed in sandy loam in wood fibre pots and covered with soil. The formulated compounds of the general formula (I) according to the invention were then applied to the surface of the covering soil in the form of an aqueous suspension or emulsion at an application rate of 600 l of water/ha (converted) with addition of 0.2% wetting agent. After the treatment, the pots were placed in a greenhouse and kept under good growth conditions for the test plants. After about 3 weeks, the effect was scored visually in percent in comparison to untreated controls. For example, 100% activity=the plants have died, 50% herbicidal activity or damage=plants reduced to 50% or plant material reduced by 50%, 0% activity=like control plants. Here, in the biological tests, the compounds of the general formula (I) according to the invention were in each case employed in a formulation, with the numerations of Tables I.1 to I.77 also applying here. Here, the herbicidal action of the compounds of the general formula (I) according to the invention was examined for the following harmful plants: AMARE=Amaranthus retroflexus The respective herbicidal action was in each case determined at the same point in time after application of the formulation in question, i.e. damage of the harmful plant in question in %. Pre-emergence herbicidal action of the compounds of the general formula (I) according to the invention: […]

Alopecurus myosuroides = experiment: Pre-emergence herbicidal action, ALOMY
Source text: as §1, with “ALOMY=Alopecurus myosuroides” for “AMARE=Amaranthus retroflexus”

Ipomoea purpurea = experiment: Pre-emergence herbicidal action, PHBPU
Source text: as §1, with “PHBPU=Ipomoea purpurea” for “AMARE=Amaranthus retroflexus”

Stellaria media = experiment: Pre-emergence herbicidal action, STEME
Source text: as §1, with “STEME=Stellaria media” for “AMARE=Amaranthus retroflexus”

Viola tricolor = experiment: Pre-emergence herbicidal action, VIOTR
Source text: as §1, with “VIOTR=Viola tricolor” for “AMARE=Amaranthus retroflexus”

Structure (SMILES) | Pre-emergence herbicidal action AMARE, damage of the harmful plant (Amaranthus retroflexus) | Pre-emergence herbicidal action ALOMY, damage of the harmful plant (Alopecurus myosuroides) | Pre-emergence herbicidal action PHBPU, damage of the harmful plant (Ipomoea purpurea) | Pre-emergence herbicidal action STEME, damage of the harmful plant (Stellaria media) | Pre-emergence herbicidal action VIOTR, damage of the harmful plant (Viola tricolor)
CC1=C(C)C(O)N(C2=NN(c3ccccn3)C(C)(C)C2)C1=O (stereo not drawn) [I.2-132] | 60% | 70% | 0% | 100% | 80%
CC1=C(C)C(O)N(C2=NN(c3ccccc3)C(C(F)(F)F)C2)C1=O (stereo not drawn) [I.2-1413] | 60% | 70% | 0% | 100% | 100%
CCC(=O)OC1C(C)=C(C)C(=O)N1C1=NN(c2ccccn2)C(C)(C)C1 (stereo not drawn) [I.23-132] | 70% | 60% | 30% | 100% | 70%
CCC(=O)OC1C(C)=C(C)C(=O)N1C1=NN(c2ccccc2)CC1 (stereo not drawn) [I.23-621] | 40% | 0% | 0% | 0% | 70%
CCC(=O)OC1C(C)=C(C)C(=O)N1C1=NN(c2ccccc2)C(C(F)(F)F)C1 (stereo not drawn) [I.23-1413] | 50% | 0% | 0% | 80% | 100%
CCC(=O)OC1C(C)=C(Cl)C(=O)N1C1=NN(C)C(c2ccccc2)C1 (stereo not drawn) [I.24-1126] | 0% | 10% | 100% | 20% | 10%
